Reference: the supplement of paper PMC11208160
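Note: IS621 bridge recombinase in Escherichia coli cells against a fixed T5 target plasmid.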

Assay: recombinant UMI read abundance after kanamycin selection (control-corrected) (log10(CPM+1)); higher = more efficient recombination; extreme values may be limits of the assay; sequences stand for … in AGTGCAGAGAAAATCGGCCAGTTTTCTCTGCCTGCAGTCCGCATGCCGTGGGACCCCTTGGGTTCTAACCTGTTGCCTAGATTTATGCAGCGGACTGCCTTTCTCCCAAAGTGATAAACCGG…AGGTTGGTTTCACT; site = the 11-nt donor
Method: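 Pooled E. coli donor-specificity screen for the IS621 bridge recombinase. Each library member carries a reprogrammed 11-nt donor and a full-length LE bridge RNA expressed in cis from the natural promoter, with a paired donor-binding loop (8-nt LDG + 4-nt RDG) and a target-binding loop fixed to T5. It is co-electroporated with a T5 target plasmid; recombinase is induced with 0.07 mM IPTG and recombinants are selected on kanamycin. UMIs are counted as CPM, averaged over two biological replicates and corrected by the unselected control. Molecule = full bridge RNA written as DNA, built from the T5 scaffold: LDG = donor specificity nt 1-8, RDG = reverse complement of nt 8-11.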
In the case of “CGAACATCATGGACCGGTTTTCCCGGTAATCCGTATTTGCT (site CGATCATCTAG)”, the “recombinant UMI read abundance (log10)” value is reported as 0. For “TTTCTCTCATGGACCGGTTTTCCCGGTAATCCGTATTTGTA (site GTTCTCTCTTA)”, the “recombinant UMI read abundance (log10)” value was 0.297. In the case of “CGATAGACATGGACCGGTTTTCCCGGTAATCCGTATTTGTT (site CGATCGACTAA)”, the “recombinant UMI read abundance (log10)” value is reported as 0.04. In the case of “CCCCGTCCATGGACCGGTTTTCCCGGTAATCCGTATTTGCA (site CCCCGTCCTTG)”, the “recombinant UMI read abundance (log10)” value is reported as 0.809. With “CACAGCCCATGGACCGGTTTTCCCGGTAATCCGTATTTGTT (site CACCGCCCTAA)” the “recombinant UMI read abundance (log10)” value was 0.00684. With “GATTGGACATGGACCGGTTTTCCCGGTAATCCGTATTTGAC (site GTTTGGACTGT)” the “recombinant UMI read abundance (log10)” value was 0. With “AGGACTACATGGACCGGTTTTCCCGGTAATCCGTATTTGAC (site CGGACTACTGT)” the “recombinant UMI read abundance (log10)” value was 0.831. In the case of “AGCCTTTCATGGACCGGTTTTCCCGGTAATCCGTATTTGAC (site GGCCTTTCTGT)”, the “recombinant UMI read abundance (log10)” value is reported as 0. With “ATAAGGCCATGGACCGGTTTTCCCGGTAATCCGTATTTGGC (site ATAAGGCCTGA)” the “recombinant UMI read abundance (log10)” value was 0. In the case of “TACCTAGCATGGACCGGTTTTCCCGGTAATCCGTATTTGAA (site TATCTAGCTTT)”, the “recombinant UMI read abundance (log10)” value is reported as 0.0166. In the case of “CGATAGACATGGACCGGTTTTCCCGGTAATCCGTATTTGAG (site CGATAGACTCT)”, the “recombinant UMI read abundance (log10)” value is reported as 2.32. In the case of “CAAACGACATGGACCGGTTTTCCCGGTAATCCGTATTTGTT (site CAAACGACTAA)”, the “recombinant UMI read abundance (log10)” value is reported as 1.41. With “GTAGTCGCATGGACCGGTTTTCCCGGTAATCCGTATTTGCG (site GTAGTCGCTAG)” the “recombinant UMI read abundance (log10)” value was 1.23. In the case of “AAAGCTCCATGGACCGGTTTTCCCGGTAATCCGTATTTGTA (site AAAGCTCCTTA)”, the “recombinant UMI read abundance (log10)” value is reported as 1.42. In the case of “AGAGCTTCATGGACCGGTTTTCCCGGTAATCCGTATTTGGG (site AGAGCTTCTCC)”, the “recombinant UMI read abundance (log10)” value is reported as 1.06. For “CCCATATCATGGACCGGTTTTCCCGGTAATCCGTATTTGTC (site CCAATATCTGA)”, the “recombinant UMI read abundance (log10)” value was 0. In the case of “TAGCCTTCATGGACCGGTTTTCCCGGTAATCCGTATTTGGA (site TAGCCTTCTTC)”, the “recombinant UMI read abundance (log10)” value is reported as 0.00303. In the case of “CCTGCTACATGGACCGGTTTTCCCGGTAATCCGTATTTGCG (site CCTGCTACTCG)”, the “recombinant UMI read abundance (log10)” value is reported as 0.0136. With “TGCAATTCATGGACCGGTTTTCCCGGTAATCCGTATTTGCC (site TACAATTCTGG)” the “recombinant UMI read abundance (log10)” value was 0. With “TATTTGGCATGGACCGGTTTTCCCGGTAATCCGTATTTGAG (site TATTTGGCTCC)” the “recombinant UMI read abundance (log10)” value was 0.00558. For “AAATGAGCATGGACCGGTTTTCCCGGTAATCCGTATTTGGG (site GAATGAGCTCC)”, the “recombinant UMI read abundance (log10)” value was 0.00588. In the case of “CCATACTCATGGACCGGTTTTCCCGGTAATCCGTATTTGCA (site CCATACTCTTG)”, the “recombinant UMI read abundance (log10)” value is reported as 2.11. For “TATTTGGCATGGACCGGTTTTCCCGGTAATCCGTATTTGTT (site TATTTGGCTTA)”, the “recombinant UMI read abundance (log10)” value was 0. With “AGCCCAGCATGGACCGGTTTTCCCGGTAATCCGTATTTGTT (site AGCCCAGCTAA)” the “recombinant UMI read abundance (log10)” value was 0.602. For “CCGTTTACATGGACCGGTTTTCCCGGTAATCCGTATTTGCT (site CCGTTTACTAT)”, the “recombinant UMI read abundance (log10)” value was 0. With “CGAGTGGCATGGACCGGTTTTCCCGGTAATCCGTATTTGGT (site CGAGTGGCTAC)” the “recombinant UMI read abundance (log10)” value was 1.1. For “CCAGTTTCATGGACCGGTTTTCCCGGTAATCCGTATTTGAC (site CCAGTTTCTGT)”, the “recombinant UMI read abundance (log10)” value was 0.759. For “TGGAATACATGGACCGGTTTTCCCGGTAATCCGTATTTGTG (site TGGAATACTCA)”, the “recombinant UMI read abundance (log10)” value was 1.12. In the case of “CTGCTACCATGGACCGGTTTTCCCGGTAATCCGTATTTGTT (site CTGCTACCTAG)”, the “recombinant UMI read abundance (log10)” value is reported as 0. In the case of “TTATGCACATGGACCGGTTTTCCCGGTAATCCGTATTTGTA (site GTATGCACTTA)”, the “recombinant UMI read abundance (log10)” value is reported as 0.0305. For “CCCTTCTCATGGACCGGTTTTCCCGGTAATCCGTATTTGGG (site CCCTTCTCTCC)”, the “recombinant UMI read abundance (log10)” value was 0.0281. In the case of “ATCCAGGCATGGACCGGTTTTCCCGGTAATCCGTATTTGAG (site ATCCACGCTCT)”, the “recombinant UMI read abundance (log10)” value is reported as 0.013. With “ACACATCCATGGACCGGTTTTCCCGGTAATCCGTATTTGAT (site ACACATCCTGT)” the “recombinant UMI read abundance (log10)” value was 0. For “GCGACTGCATGGACCGGTTTTCCCGGTAATCCGTATTTGCC (site GCTACTGCTGG)”, the “recombinant UMI read abundance (log10)” value was 0. With “CCGGAACCATGGACCGGTTTTCCCGGTAATCCGTATTTGAT (site CTGGAACCTAT)” the “recombinant UMI read abundance (log10)” value was 0.00208. With “CTGGTCGCATGGACCGGTTTTCCCGGTAATCCGTATTTGCA (site CTGGTCGCTTG)” the “recombinant UMI read abundance (log10)” value was 2.01. In the case of “TACTTGACATGGACCGGTTTTCCCGGTAATCCGTATTTGTT (site TACTTGACTAT)”, the “recombinant UMI read abundance (log10)” value is reported as 0.00466. For “CACGACCCATGGACCGGTTTTCCCGGTAATCCGTATTTGTT (site CACGGCCCTAA)”, the “recombinant UMI read abundance (log10)” value was 0.0138. In the case of “CTATAATCATGGACCGGTTTTCCCGGTAATCCGTATTTGCT (site CTATAATCTAG)”, the “recombinant UMI read abundance (log10)” value is reported as 3.13. For “CTACCGTCATGGACCGGTTTTCCCGGTAATCCGTATTTGGG (site CTACCGTCTCC)”, the “recombinant UMI read abundance (log10)” value was 0.901. With “ACAGTATCATGGACCGGTTTTCCCGGTAATCCGTATTTGCA (site ACGGTAGCTTG)” the “recombinant UMI read abundance (log10)” value was 0.0044. With “AGGCTCCCATGGACCGGTTTTCCCGGTAATCCGTATTTGTG (site AGGTTCCCTCA)” the “recombinant UMI read abundance (log10)” value was 0.0277. For “GGCCGATCATGGACCGGTTTTCCCGGTAATCCGTATTTGTC (site GGCCGATCTGA)”, the “recombinant UMI read abundance (log10)” value was 0.695. With “CACTAGGCATGGACCGGTTTTCCCGGTAATCCGTATTTGGA (site CACTGGGCTTC)” the “recombinant UMI read abundance (log10)” value was 0.0136. For “CCCTGTCCATGGACCGGTTTTCCCGGTAATCCGTATTTGCA (site CCCCGTCCTTG)”, the “recombinant UMI read abundance (log10)” value was 0.0428. With “CGCTCCTCATGGACCGGTTTTCCCGGTAATCCGTATTTGCT (site CGCTCCTCTAG)” the “recombinant UMI read abundance (log10)” value was 3.07. For “CTCCCTACATGGACCGGTTTTCCCGGTAATCCGTATTTGGG (site CTCCCTACTCG)”, the “recombinant UMI read abundance (log10)” value was 0.00544. For “AGCCTAGCATGGACCGGTTTTCCCGGTAATCCGTATTTGTT (site AGCTTAGCTAA)”, the “recombinant UMI read abundance (log10)” value was 0.0228. With “GATAGGACATGGACCGGTTTTCCCGGTAATCCGTATTTGAC (site GATGGGACTGT)” the “recombinant UMI read abundance (log10)” value was 0.531. In the case of “TACTTGACATGGACCGGTTTTCCCGGTAATCCGTATTTGAT (site TACTTGACTAA)”, the “recombinant UMI read abundance (log10)” value is reported as 0.0207. In the case of “CGGAAACCATGGACCGGTTTTCCCGGTAATCCGTATTTGTT (site CGGAAGCCTAA)”, the “recombinant UMI read abundance (log10)” value is reported as 0.00793. With “AAAGCCCCATGGACCGGTTTTCCCGGTAATCCGTATTTGAA (site AAAGCCCCTTT)” the “recombinant UMI read abundance (log10)” value was 0.767. For “TCCCGCTCATGGACCGGTTTTCCCGGTAATCCGTATTTGCC (site TCCCGCTCTGG)”, the “recombinant UMI read abundance (log10)” value was 0. With “ACGGAGACATGGACCGGTTTTCCCGGTAATCCGTATTTGCA (site AGGAAGACTTG)” the “recombinant UMI read abundance (log10)” value was 0. In the case of “AATGTAACATGGACCGGTTTTCCCGGTAATCCGTATTTGCT (site AAGGTAACTAG)”, the “recombinant UMI read abundance (log10)” value is reported as 1.84. In the case of “CAAGTCACATGGACCGGTTTTCCCGGTAATCCGTATTTGGG (site CACGTCACTCC)”, the “recombinant UMI read abundance (log10)” value is reported as 0. In the case of “GTCTGATCATGGACCGGTTTTCCCGGTAATCCGTATTTGAA (site GTCTGATCTTT)”, the “recombinant UMI read abundance (log10)” value is reported as 1.66. In the case of “GGTAAGTCATGGACCGGTTTTCCCGGTAATCCGTATTTGTT (site GGTAGGTCTAA)”, the “recombinant UMI read abundance (log10)” value is reported as 0.00944. For “CCGAAGCCATGGACCGGTTTTCCCGGTAATCCGTATTTGGG (site TCGAAGCCTCC)”, the “recombinant UMI read abundance (log10)” value was 0.0139. For “GGTGTTACATGGACCGGTTTTCCCGGTAATCCGTATTTGTT (site GGTGTTACTAA)”, the “recombinant UMI read abundance (log10)” value was 0.51. For “GCGGCTACATGGACCGGTTTTCCCGGTAATCCGTATTTGTC (site GCGGCTACTGA)”, the “recombinant UMI read abundance (log10)” value was 2.67. For “GCTTGCCCATGGACCGGTTTTCCCGGTAATCCGTATTTGAT (site GCTTGCCCTGT)”, the “recombinant UMI read abundance (log10)” value was 0. With “GTCAAACCATGGACCGGTTTTCCCGGTAATCCGTATTTGGT (site GACAAACCTAC)” the “recombinant UMI read abundance (log10)” value was 0. With “TACTAGACATGGACCGGTTTTCCCGGTAATCCGTATTTGCT (site TACTAGACTAG)” the “recombinant UMI read abundance (log10)” value was 1.84. With “CTAATAACATGGACCGGTTTTCCCGGTAATCCGTATTTGGA (site CTAGTAACTTC)” the “recombinant UMI read abundance (log10)” value was 0.0598. With “AATTACGCATGGACCGGTTTTCCCGGTAATCCGTATTTGGA (site AATTAGGCTTC)” the “recombinant UMI read abundance (log10)” value was 0.158. In the case of “CTTGCGGCATGGACCGGTTTTCCCGGTAATCCGTATTTGCT (site GTTGCGGCTAG)”, the “recombinant UMI read abundance (log10)” value is reported as 0.00591. With “ATAAGAACATGGACCGGTTTTCCCGGTAATCCGTATTTGGG (site ATAAGAACTCC)” the “recombinant UMI read abundance (log10)” value was 0.884. For “GTACATTCATGGACCGGTTTTCCCGGTAATCCGTATTTGTG (site GTACATTCTCA)”, the “recombinant UMI read abundance (log10)” value was 2.5. In the case of “ACAAATCCATGGACCGGTTTTCCCGGTAATCCGTATTTGAC (site ACATATCCTGT)”, the “recombinant UMI read abundance (log10)” value is reported as 0. In the case of “CGTGGAACATGGACCGGTTTTCCCGGTAATCCGTATTTGGT (site CGTGGAACTAG)”, the “recombinant UMI read abundance (log10)” value is reported as 0. With “CGTTTCGCATGGACCGGTTTTCCCGGTAATCCGTATTTGGA (site CGTTTCGCTTC)” the “recombinant UMI read abundance (log10)” value was 0.0198.
